Laboratory results: patent EP0628046B1, “TRIAZOLOPYRIMIDIN DERIVATIVES AS ANTIOTENSIN II RECEPTOR ANTAGONISTS” (LABORATOIRES UPSA, priority 1992, dated 1993)

Key:
[1] = test system: récepteurs surrénaliens de l'angiotensine Il; assay: Displacement of [125I]-SIAII radioligand from adrenal angiotensin II receptors (rat adrenal homogenate); assay type: binding; conditions: 60 min at 25°C
Source text: L'affinité des produits des exemples pour les récepteurs de l'angiotensine Il est évaluée par technique de déplacement d'un radioligand spécifiquement fixé sur les récepteurs surrénaliens de l'angiotensine Il, chez le rat.
Une aliquote d'un homogénat de surrénales de rat incube en présence d'une concentration unique de [1251] - SIAII (Sar1, Tyr4, Ile8 - angiotensine il), antagoniste des récepteurs de l'angiotensine Il, et de deux concentrations d'agents compétiteurs (10^-5 M, 10^-7 M) durant 60 min à 25°C.
La réaction est achevée par ajout de tampon, puis rapide filtration à travers des filtres de papier de verre. La liaison non spécifique est déterminée en présence d'angiotensine II.
Les résultats sont exprimés, pour les concentrations testées, en pourcentage de déplacement du radioligand spécifiquement fixé sur les récepteurs surrénaliens de l'angiotensine il.

[2] = test system: cellules musculaires lisses d'aortes de rat (CMLV); assay: Inhibition of PDGF-induced cell proliferation (3H-thymidine incorporation) in rat aortic smooth muscle cells; assay type: cell-based; conditions: 1E - 4M; 1 h pretreatment, 22 h PDGF stimulation
Procedure: B. Mesure de l'inhibition de la prolifération cellulaire induite par les facteurs de croissance (exemple : le Platelet-Derived Growth Factor ou PDGF) dans les cellules musculaires lisses d'aortes de rat
L'inhibition de la prolifération cellulaire induite par un facteur de croissance (exemple : le PDGF) est évaluée par mesure de l'incorporation de 3H-thymidine dans les cellules musculaires lisses d'aortes de rat (CMLV).
Les CMLV sont cultivées à 37°C, en 5 % C02, jusqu'à la sous-confluence puis placées pendant 24 heures en quiescence dans un milieu pauvre en sérum. Elles sont ensuite prétraitées pendant une heure par la molécule à tester (10^-4M) puis stimulées pendant 22 heures par un facteur de croissance (exemple : le PDGF). L'incorporation de 3H-thymidine est effectuée pendant les 4 dernières heures. Toutes ces étapes sont effectuées à 37°C, en 5 % CO2. La réaction est terminée par aspiration du milieu réactionnel, détachement des cellules, puis filtration des cellules lysées à travers des filtres en fibres de verre.
Les résultats sont exprimés en pourcentage d'inhibition de la stimulation d'incorporation de 3H-thymidine due à l'action du facteur de croissance.

Compound | % de déplacement du ligand marqué ([1]; competitor 1E-5M, 10 µM) [%] | % de déplacement du ligand marqué ([1]; competitor 1E-7M, 0.1 µM) [%] | % inhibition de l'incorporation de 3H-thymidine induite par le PDGF [2] [%]
CCCc1c(Cc2ccc(-c3ccccc3-c3nnn[nH]3)cc2)c(O)nc2ncnn12 [Exemple 63, 5-hydroxy-7-propyl-6-[(2'-(1-H-tétrazol-5-yl)biphényl-4-yl)méthyl]-1,2,4-triazolo [1,5-a] pyrimidine] | 61 | 52 | –
CCCCc1c(Cc2ccc(-c3ccccc3-c3nnn[nH]3)cc2)c(O)nc2nc(C)nn12 [Exemple 82, 7-butyl-5-hydroxy-2-méthyl-6-[(2'(1-H-tétrazol-5-yl)biphényl-4-yl)méthyl]-1,2,4-triazolo [1,5-a] pyrimidine] | 58 | 11 | –
CCCc1c(Cc2ccc(-c3ccccc3-c3nnn[nH]3)cc2)c(O)nc2nc(N)nn12 [Exemple 75, 2-amino-5-hydroxy-7-propyl-6-[(2'-(1-H-tétrazol-5-yl)biphényl-4-yl)méthyl]-1,2,4-triazolo [1,5-a] pyrimidine] | 61 | 60 | –
7-N,N-diethylamino-5-propyl-6-[(2'-(1-H-tétrazol-5-yl) biphényl-4-yl) méthyl]-1,2,4-triazolo [1,5-a] pyrimidine [Exemple 69] | 69 | 19 | 100
CCCc1c(Cc2ccc(-c3ccccc3-c3nnn[nH]3)cc2)c(N(CC)CC)nc2ncnn12 [Exemple 76, 5-N,N-diéthylamino-7-propyl-6-[(2'-(1-H-tétrazol-5-yl)biphényl-4-yl)méthyl]-1,2,4-triazolo [1,5-a] pyrimidine] | 63 | 28 | –
CCCc1c(Cc2ccc(-c3ccccc3-c3nnn[nH]3)cc2)c(N)nc2ncnn12 [Exemple 77, 5-amino-7-propyl-6-[(2'-(1-H-tétrazol-5-yl)biphényl-4-yl)méthyl]-1,2,4-triazolo [1,5-a] pyrimidine] | 63 | 31 | –
CCCc1c(Cc2ccc(-c3sccc3-c3nnn[nH]3)cc2)c(O)nc2ncnn12 [Exemple 79, 5-hydroxy-7-propyl-6-[4-[3-(1-H-tétrazol-5-yl)-2-thiényl]benzyl]-1,2,4-triazolo [1,5-a] pyrimidine] | 58 | 26 | –
CCCc1nc2nc(CC)nn2c(O)c1Cc1ccc(-c2ccccc2-c2nnn[nH]2)cc1 [Exemple 68, 2-éthyl-7-hydroxy-5-propyl-6-[(2'-(1-H-tétrazol-5-yl)biphényl-4-yl)méthyl]-1,2,4-triazolo [1,5-a] pyrimidine] | 69 | 59 | –
CCCc1nc2ncnn2c(O)c1Cc1ccc(-c2ccccc2-c2nnn[nH]2)cc1 [Exemple 62, 7-hydroxy-5-propyl-6-[(2'-(1-H-tétrazol-5-yl)biphényl-4-yl)méthyl]-1,2,4-triazolo [1,5-a]pyrimidine] | 65 | 52 | –
CCCc1nc2nncn2c(O)c1Cc1ccc(-c2ccccc2-c2nnn[nH]2)cc1 [Exemple 65, 5-hydroxy-7-propyl-6-[(2'-(1-H-tétrazol-5-yl)biphényl-4-yl)méthyl]-1,2,4 triazolo [4,3-a] pyrimidine] | 63 | 47 | –
